{"source": "patent US4260745A", "about": "“3-Halo cephalosporins” (Eli Lilly and Company, priority 1979, dated 1981)", "key": {"Salmonella heidelberg": {"test_system": "Salmonella heidelberg", "test": "Gradient Plate technique, MIC", "format": "cell-based", "conditions": "Salmonella enterica, read-out: Minimum Inhibitory Concentration", "text": "(§1) The following Table II lists the minimum inhibitory concentration (MIC) for 7-[2-(2-thienyl)acetamido]-3-chloro-3-cephem-4-carboxylic acid against penicillin resistant Staphylococcus both in the presence of and absence of serum. The MIC values were obtained by the Gradient Plate technique carried out essentially as described by Bryson and Szybalski, Science, 116, 45 (1952).\n(§2) In Table III, below, the MIC values for the test compound of Tables I and II against representative gram-negative organisms is presented. The data were obtained by the Gradient Plate technique.\n(§3) The minimum inhibitory concentrations for 7-[2-(2-thienyl)acetamido]-3-bromo-3-cephem-4-carboxylic acid against representative gram-negative bacteria is presented in Table VI. The data were obtained by the Gradient Plate Method.\n(§4) Tables VII and VIII list the minimum inhibitory concentrations of the test compound effective against representative penicillin resistant Staphylococcus strains, while […] the MIC values obtained against representative gram-negative microorganisms. The data were obtained by the Gradient Plate method."}, "Pseudomonas aeruginosa": {"test_system": "Pseudomonas aeruginosa", "test": "Gradient Plate technique, MIC", "format": "cell-based", "conditions": "read-out: Minimum Inhibitory Concentration", "text": "as §1, §2, §3, §4"}, "Klebsiella pneumoniae": {"test_system": "Klebsiella pneumoniae", "test": "Gradient Plate technique, MIC", "format": "cell-based", "conditions": "read-out: Minimum Inhibitory Concentration", "text": "as §1, §2, §3, §4"}, "Serratia marcescens": {"test_system": "Serratia marcescens", "test": "Gradient Plate technique, MIC", "format": "cell-based", "conditions": "read-out: Minimum Inhibitory Concentration", "text": "as §1, §2, §3, §4"}, "Shigella sp.": {"test_system": "Shigella sp.", "test": "Gradient Plate technique, MIC", "format": "cell-based", "conditions": "read-out: Minimum Inhibitory Concentration", "text": "as §1, §2, §3, §4"}, "Escherichia coli": {"test_system": "Escherichia coli", "test": "Gradient Plate technique, MIC", "format": "cell-based", "conditions": "read-out: Minimum Inhibitory Concentration", "text": "as §1, §2, §3, §4"}, "Aerobacter aerogenes": {"test_system": "Aerobacter aerogenes", "test": "Gradient Plate technique, MIC", "format": "cell-based", "conditions": "Klebsiella aerogenes, read-out: Minimum Inhibitory Concentration", "text": "as §1, §2, §3, §4"}, "[1]": {"test_system": "Methicillin resistant Staphylococcus", "test": "Gradient Plate technique, MIC", "format": "cell-based", "conditions": "Clinical Isolate X400 (methicillin resistant)"}, "[2]": {"test_system": "Staphylococcus aureus 3055", "test": "standard agar dilution method, MIC", "format": "cell-based", "conditions": "read-out: Minimum Inhibitory Concentration", "text": "(§5) In Table IX which follows, the MIC values against a spectrum of microorganisms obtained with the test compound are presented. The test method was the standard agar dilution method."}, "[3]": {"test_system": "Enterobacter aerogenes EB17", "test": "standard agar dilution method, MIC", "format": "cell-based", "conditions": "Klebsiella aerogenes, read-out: Minimum Inhibitory Concentration", "text": "as §5"}, "[4]": {"test_system": "Pseudomonas solanacearcum X185", "test": "standard agar dilution method, MIC", "format": "cell-based", "conditions": "read-out: Minimum Inhibitory Concentration", "text": "as §5"}, "[5]": {"test_system": "Streptococcus faecalis X66", "test": "standard agar dilution method, MIC", "format": "cell-based", "conditions": "Enterococcus faecalis, read-out: Minimum Inhibitory Concentration", "text": "as §5"}, "Citrobacter freundii": {"test_system": "Citrobacter freundii", "test": "standard agar dilution method, MIC", "format": "cell-based", "conditions": "read-out: Minimum Inhibitory Concentration", "text": "as §5"}, "[6]": {"test_system": "Pseudomonas aeruginosa X239", "test": "standard agar dilution method, MIC", "format": "cell-based", "conditions": "read-out: Minimum Inhibitory Concentration", "text": "as §5"}, "[7]": {"test_system": "Trichophyton mentagrophytes 27", "test": "standard agar dilution method, MIC", "format": "cell-based", "conditions": "read-out: Minimum Inhibitory Concentration", "text": "as §5"}, "Erwinia amylovora": {"test_system": "Erwinia amylovora", "test": "standard agar dilution method, MIC", "format": "cell-based", "conditions": "read-out: Minimum Inhibitory Concentration", "text": "as §5"}, "[8]": {"test_system": "Klebsiella pneumoniae KL14", "test": "standard agar dilution method, MIC", "format": "cell-based", "conditions": "read-out: Minimum Inhibitory Concentration", "text": "as §5"}, "Salmonella typhosa SA12": {"test_system": "Salmonella typhosa SA12", "test": "standard agar dilution method, MIC", "format": "cell-based", "conditions": "Salmonella enterica, read-out: Minimum Inhibitory Concentration", "text": "as §5"}, "Aspergillus flavus E": {"test_system": "Aspergillus flavus E", "test": "standard agar dilution method, MIC", "format": "cell-based", "conditions": "read-out: Minimum Inhibitory Concentration", "text": "as §5"}, "Escherichia coli EC14": {"test_system": "Escherichia coli EC14", "test": "standard agar dilution method, MIC", "format": "cell-based", "conditions": "read-out: Minimum Inhibitory Concentration", "text": "as §5"}, "[9]": {"test_system": "Staphylococcus aureus 3074", "test": "standard agar dilution method, MIC", "format": "cell-based", "conditions": "read-out: Minimum Inhibitory Concentration", "text": "as §5"}, "Candida tropicalis A17": {"test_system": "Candida tropicalis A17", "test": "standard agar dilution method, MIC", "format": "cell-based", "conditions": "read-out: Minimum Inhibitory Concentration", "text": "as §5"}, "Ceratocystis ulmi": {"test_system": "Ceratocystis ulmi", "test": "standard agar dilution method, MIC", "format": "cell-based", "conditions": "read-out: Minimum Inhibitory Concentration", "text": "as §5"}, "Salmonella typhimurium": {"test_system": "Salmonella typhimurium", "test": "standard agar dilution method, MIC", "format": "cell-based", "conditions": "Salmonella enterica, read-out: Minimum Inhibitory Concentration", "text": "as §5"}, "[10]": {"test_system": "Bordetella bronchiseptica 16", "test": "standard agar dilution method, MIC", "format": "cell-based", "conditions": "read-out: Minimum Inhibitory Concentration", "text": "as §5"}, "Proteus morganii PR15": {"test_system": "Proteus morganii PR15", "test": "standard agar dilution method, MIC", "format": "cell-based", "conditions": "Morganella morganii, read-out: Minimum Inhibitory Concentration", "text": "as §5"}, "Serratia marcescens SE3": {"test_system": "Serratia marcescens SE3", "test": "standard agar dilution method, MIC", "format": "cell-based", "conditions": "read-out: Minimum Inhibitory Concentration", "text": "as §5"}, "[11]": {"test_system": "Penicillin Resistant Staphylococcus", "test": "Gradient Plate technique, MIC", "format": "cell-based", "conditions": "read-out: Minimum Inhibitory Concentration", "text": "as §1, with “(1952). […]” for “(1952).”"}, "Electrometric titration": {"test": "Electrometric titration", "format": "physicochemical", "conditions": "66% aqueous dmf, read-out: pKa"}}, "note": "Where a name gives a salt, the structure may show the parent alone. Read-outs that look alike come from different tables or passages of the source.", "data": [{"smiles": "O=CO[C@@H](C(=O)NC1C(=O)N2C(C(=O)O)=C(Cl)CSC12)c1ccccc1", "note": "(stereo partly drawn) [7-[O-(Formyl)-D-mandelamido]-3-chloro-3-cephem-4-carboxylic acid]", "values": [{"measurement": "MIC", "setting": "Salmonella heidelberg", "result": 0.6, "unit": "µg/mL"}, {"measurement": "MIC", "setting": "Pseudomonas aeruginosa", "result": "> 200", "unit": "µg/mL"}, {"measurement": "MIC", "setting": "Klebsiella pneumoniae", "result": 1, "unit": "µg/mL"}, {"measurement": "MIC", "setting": "Serratia marcescens", "result": 160, "unit": "µg/mL"}, {"measurement": "MIC", "setting": "Shigella sp.", "result": 4, "unit": "µg/mL"}, {"measurement": "MIC", "setting": "Escherichia coli", "result": 6.3, "unit": "µg/mL"}, {"measurement": "MIC", "setting": "Aerobacter aerogenes", "result": 0.7, "unit": "µg/mL"}, {"measurement": "Minimum Inhibitory Concentration", "setting": "[1]; Serum", "result": "> 20", "unit": "µg/mL"}, {"measurement": "MIC", "setting": "[1]; Staphylococcus, No Serum, read-out: Minimum Inhibitory Concentration", "result": "> 20", "unit": "µg/mL"}, {"measurement": "MIC", "setting": "[2]", "result": "> 0.25", "unit": "µg/mL"}, {"measurement": "MIC", "setting": "[3]", "result": 128, "unit": "µg/mL"}, {"measurement": "MIC", "setting": "[4]", "result": 128, "unit": "µg/mL"}, {"measurement": "MIC", "setting": "[5]", "result": 64, "unit": "µg/mL"}, {"measurement": "MIC", "setting": "Citrobacter freundii", "result": "> 128", "unit": "µg/mL"}, {"measurement": "MIC", "setting": "[6]", "result": 128, "unit": "µg/mL"}, {"measurement": "MIC", "setting": "[7]", "result": "> 128", "unit": "µg/mL"}, {"measurement": "MIC", "setting": "Erwinia amylovora", "result": "> 128", "unit": "µg/mL"}, {"measurement": "MIC", "setting": "[8]", "result": 4, "unit": "µg/mL"}, {"measurement": "MIC", "setting": "Salmonella typhosa SA12", "result": 0.5, "unit": "µg/mL"}, {"measurement": "MIC", "setting": "Aspergillus flavus E", "result": "> 128", "unit": "µg/mL"}, {"measurement": "MIC", "setting": "Escherichia coli EC14", "result": 8, "unit": "µg/mL"}, {"measurement": "MIC", "setting": "[9]", "result": 1, "unit": "µg/mL"}, {"measurement": "MIC", "setting": "Candida tropicalis A17", "result": "> 128", "unit": "µg/mL"}, {"measurement": "MIC", "setting": "Ceratocystis ulmi", "result": "> 128", "unit": "µg/mL"}, {"measurement": "MIC", "setting": "Salmonella typhimurium", "result": 1, "unit": "µg/mL"}, {"measurement": "MIC", "setting": "[10]", "result": 64, "unit": "µg/mL"}, {"measurement": "MIC", "setting": "Proteus morganii PR15", "result": 4, "unit": "µg/mL"}, {"measurement": "MIC", "setting": "Serratia marcescens SE3", "result": "> 128", "unit": "µg/mL"}, {"measurement": "MIC", "setting": "[11]; Clinical Isolate V 32, No Serum", "result": 8, "unit": "µg/mL"}, {"measurement": "MIC", "setting": "[11]; Clinical Isolate V 32, Serum", "result": "> 20", "unit": "µg/mL"}, {"measurement": "MIC", "setting": "[11]; Clinical Isolate V 41, No Serum", "result": 5.8, "unit": "µg/mL"}, {"measurement": "MIC", "setting": "[11]; Clinical Isolate V 41, Serum", "result": "> 20", "unit": "µg/mL"}, {"measurement": "MIC", "setting": "[11]; Clinical Isolate V 84, No Serum", "result": 0.4, "unit": "µg/mL"}, {"measurement": "MIC", "setting": "[11]; Clinical Isolate V 84, Serum", "result": 1, "unit": "µg/mL"}, {"measurement": "MIC", "setting": "[11]; Clinical Isolate X 1.1, No Serum", "result": "< 0.1", "unit": "µg/mL"}, {"measurement": "MIC", "setting": "[11]; Clinical Isolate X 1.1, Serum", "result": "< 0.1", "unit": "µg/mL"}, {"measurement": "pKa", "setting": "Electrometric titration; only or first pKa", "result": 4.5}]}, {"smiles": "NC1C(=O)N2C(C(=O)OCc3ccc([N+](=O)[O-])cc3)=C(O)CS[C@H]12", "note": "(stereo partly drawn) [Example 5, p-Nitrobenzyl 7-amino-3-hydroxy-3-cephem-4-carboxylate hydrochloride]", "values": [{"measurement": "pKa", "setting": "Electrometric titration; 66% DMF, second pKa", "result": 6.3}, {"measurement": "pKa", "setting": "Electrometric titration; only or first pKa", "result": 4}]}]}
